# Assays:
# [1] = test system: BT549 (BRCA wild type) cells; assay: Caspase 3/7 apoptosis Incucyte assay with olaparib, BT549; type: cell-based; conditions: 1 μM compound 23, 0.05 μM olaparib, vs 0.05% DMSO, combination also vs single agents p<0.0001
# Description: (§1) BT549 (BRCA wild type) (A) and DoTc 4510 (BRCA2 mutated) (B) cells were seeded in duplicate into tissue culture treated black-sided, clear-bottom 96-well plates at 5,000^cells/well and allowed to adhere and establish for 24 h. Cells were treated with indicated concentrations of DMSO, compound 23, or Olaparib (FIGS. 13A and 13B) either alone or in combination and were labelled with 1× Essen Bioscience IncuCyte® Caspase-3/7 Green Reagent (final concentration 5 μM). Treated plates were imaged every 2 hours for 72 hours with the IncuCyte® S3 Live-Cell Analysis System. At each timepoint, one image per well was taken in both brightfield and FITC channels on the IncuCyte® S3 Live-Cell Analysis System. Images were analyzed for number of green objects per mm^2 using the IncuCyte S3 v2017A software.
# Using a caspase 3/7 apoptosis Incucyte assay, the effect of compound 23, PARPi and the combination of compound 23, and PARPi on tumor cell apoptosis was assessed in both BRCA wild type and mutated tumor cell lines in vitro.
# [2] = test system: DoTc 4510 (BRCA2 mutated) cells; assay: Caspase 3/7 apoptosis Incucyte assay with olaparib, DoTc 4510; type: cell-based; conditions: vs 0.05% DMSO, combination also vs single agents p<0.0001
# Description: as §1
# BT549 tumor cell line = assay: Caspase 3/7 apoptosis Incucyte assay with paclitaxel, BT549; type: cell-based; conditions: 0.1 μM compound 23, 0.002 μM paclitaxel, vs 0.05% DMSO, combination also vs single agents p<0.0001
# Description: as §1, with “BT549” for “BT549 (BRCA wild type) (A) and DoTc 4510 (BRCA2 mutated) (B)”, “5,000 ^cells/well” for “5,000^cells/well”, “with” for “with indicated concentrations of”, “Paclitaxel” for “Olaparib (FIGS. 13A and 13B)”, “48” for “72”
# Using a caspase 3/7 apoptosis Incucyte® assay, the effect of compound 23, paclitaxel and the combination of compound 23 and paclitaxel on tumor cell apoptosis was assessed in the BT549 tumor cell line (a mammary gland carcinoma) in vitro.
# Raji cells = assay: Raji human non-Hodgkin's lymphoma model in SCID mice, combination with rituximab
# Description: Female CB17 mice with severe combined immunodeficiency (SCID) were intravenously (IV) injected in the tail vein with Raji cells on Day 0 and treated from Day 5 to Day 37 by administration of either: vehicle (0.5% methylcellulose, 0.2% Polysorbate 80 in deionized water+1 eq HCl) daily, orally (PO) or compound 23 at 30 mg/kg daily, PO. Anti-CD20 antibody (rituximab) at 20 mg/kg was intraperitoneally (IP) administered on Day 5, 10, and 15, either alone or in combination with compound 23 at 30 mg/kg daily, PO.
compound,measurement,setting,value
"O=C(c1cc(Cc2n[nH]c(=O)c3ccccc23)ccc1F)N1CCN(C(=O)C2CC2)CC1 [olaparib, reference compound]",tumor cell apoptosis (caspase 3/7),[1],did not undergo a significant increase in apoptosis
same,tumor cell apoptosis (caspase 3/7),[2],did not significantly increase tumor cell apoptosis
"CC(=O)O[C@H]1C(=O)[C@@]2(C)[C@H]([C@H](OC(=O)c3ccccc3)[C@]3(O)C[C@H](OC(=O)[C@H](O)[C@@H](NC(=O)c4ccccc4)c4ccccc4)C(C)=C1C3(C)C)[C@]1(OC(C)=O)CO[C@@H]1C[C@@H]2O [paclitaxel, reference compound]",tumor cell apoptosis (caspase 3/7),BT549 tumor cell line,did not undergo a significant increase in apoptosis
rituximab [reference compound],survival compared to untreated mice,"Raji cells; compound 23 30 mg/kg daily PO, rituximab 20 mg/kg IP Day 5, 10, 15, p<0.0001",significantly higher
same,survival compared to mice treated with the combination of compound 23 and rituximab,Raji cells; p<0.0001,significantly lower
